Results published in patent US11076595B2, “1-(n,n-disubstituted carbamoyl) 4-(substituted sulfonyl)triazolin-5-one derivative, 4-(n,n-disubstituted carbamoyl) 1-(substituted sulfonyl)triazolin-5-one derivative, and herbicide containing said derivative as active ingredient” (HOKKO CHEMICAL INDUSTRY CO., LTD., priority 2017, dated 2021).

Columns and labels:
Format in all cases: in vivo
Amaranthus viridis = assay: Test Example 14: herbicidal effect test by foliage treatment in upland field; conditions: 7 days after sowing, 120 g/10a, 14 days after treatment
Protocol: (§1) This test was performed with two replications per one formulation concentration plot, and 14 days after the formulation treatments, the weed suppression rate (%) was determined according to the following equation (Math. 2). Weed suppression rate (%)=(1−average dry weight (g) of plants in treated plots/average dry weight (g) of plants in untreated plots)×100 [Math. 2]
(§2) A pot having a size of 36 cm^2 was filled with field soil (alluvial soil) and after uniformly mixing the soil of the surface layer of 1 cm with 20 grains of each weed seed of crabgrass, Echinochloa crus-galli, Chenopodium album and Amaranthus viridis, the surface layer was pressed lightly. Seven Days after the sowing, an emulsifiable concentrate prepared according to Formulation Example 15 by using the compound shown in Table 12 below was diluted with water, and the water-diluted formulation was sprayed on the soil surface at a ratio of 100 liter per 10 are. The application rate of the active ingredient, by conversion, corresponded to 120 g per 10 are. Fourteen Days after the formulation treatment, the herbicidal effect was evaluated by the same criteria as in Test Example 11.

Echinochloa crus-galli [1] = assay: as above; conditions: 7 days after sowing, 120 g/10a, 14 days after treatment
Protocol: as §1, §2

crabgrass = assay: as above; conditions: 7 days after sowing, 120 g/10a, 14 days after treatment
Protocol: as §2

Chenopodium album = assay: as above; conditions: 7 days after sowing, 120 g/10a, 14 days after treatment
Protocol: as §2

Lindernia pyxidaria [2] = assay: Test Example 12: herbicidal effect test by treatment during growing period in paddy field; conditions: 120 g/10a; treatment seven days after sowing in flooded paddy pot; assessed 14 days after treatment
In short: (§3)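 Growing-period treatment in flooded paddy pots: the diluted emulsifiable concentrate was dripped in at 120 g a.i. per 10 are seven days after seeding. Inhibition is expressed as percent reduction in dry weight versus untreated pots, measured 14 days later in duplicate.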

Echinochloa crus-galli [3] = assay: as above; conditions: 120 g/10a; treatment seven days after sowing in flooded paddy pot; assessed 14 days after treatment
In short: as §3

Monochoria vaginalis [4] = assay: as above; conditions: 120 g/10a; treatment seven days after sowing in flooded paddy pot; assessed 14 days after treatment
In short: as §3

Scirpus juncoides [5] = assay: as above; conditions: 120 g/10a; treatment seven days after sowing in flooded paddy pot; assessed 14 days after treatment
In short: as §3

Lindernia pyxidaria [6] = assay: Test Example 11: herbicidal effect test by soil treatment in paddy field; conditions: 120 g/10a active ingredient, 14 days after treatment
In short: (§4)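 Seeds were sown 0-1 cm deep in puddled, fertilised paddy soil in Wagner pots and kept under about 3 cm of flooding in a greenhouse. Diluted emulsifiable concentrate was added dropwise right after sowing at 120 g a.i. per 10 are. Suppression (%) came from dry weight versus untreated pots after 14 days, two replicates.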

Echinochloa crus-galli [7] = assay: as above; conditions: 120 g/10a active ingredient, 14 days after treatment
In short: as §4

Monochoria vaginalis [8] = assay: as above; conditions: 120 g/10a active ingredient, 14 days after treatment
In short: as §4

Scirpus juncoides [9] = assay: as above; conditions: 120 g/10a active ingredient, 14 days after treatment
In short: as §4

Row | Structure (SMILES) | herbicidal effect, Amaranthus viridis (Amaranthus viridis) [%] | herbicidal effect, Echinochloa crus-galli (Echinochloa crus-galli [1]) [%] | herbicidal effect, Crabgrass (crabgrass) [%] | herbicidal effect, Chenopodium album (Chenopodium album) [%] | Weed suppression rate (%) Lindemia pyxidaria (Lindernia pyxidaria [2]) [%] | Weed suppression rate (%) Echinochloa crus-galli (Echinochloa crus-galli [3]) [%] | Weed suppression rate (%) Monochoria vaginalis (Monochoria vaginalis [4]) [%] | Weed suppression rate (%) Scirpus juncoides (Scirpus juncoides [5]) [%] | Weed suppression rate (%) Lindemia pyxidaria (Lindernia pyxidaria [6]) [%] | Weed suppression rate (%) Echinochloa crus-galli (Echinochloa crus-galli [7]) [%] | Weed suppression rate (%) Monochoria vaginalis (Monochoria vaginalis [8]) [%] | Weed suppression rate (%) Scirpus juncoides (Scirpus juncoides [9]) [%]
1 | CC(C)N(C(=O)n1cnn(S(=O)(=O)C(C)C)c1=O)c1ccc(Cl)cc1F [Compound 11-67] | 60 | 90 | 90 | 60 | 90 | 100 | 90 | 90 | 90 | 100 | 90 | 90
2 | CC(C)N(C(=O)n1cnn(S(=O)(=O)C(C)C)c1=O)c1ccc(Cl)cc1Br [Compound 11-71] | 60 | 100 | 100 | 70 | 70 | 100 | 70 | 100 | 90 | 100 | 70 | 100
3 | Cc1cc(Cl)ccc1N(C(=O)n1cnn(S(=O)(=O)C(C)C)c1=O)C(C)C [Compound 11-74] | 90 | 80 | 90 | 80 | 80 | 90 | 80 | 90 | 80 | 90 | 80 | 90
4 | CC(C)N(C(=O)n1cnn(S(=O)(=O)C(C)C)c1=O)c1ccc(C(F)(F)F)cc1F [Compound 11-76] | 80 | 100 | 100 | 60 | 60 | 100 | 80 | 60 | 80 | 100 | 100 | 60
5 | C=CS(=O)(=O)n1ncn(C(=O)N(c2ccc(F)cc2F)C(C)C)c1=O [Compound 11-134] | 40 | 40 | 70 | 40 | 40 | 70 | 40 | 40 | 40 | 70 | 40 | 40
6 | O=C(N(CC(F)(F)F)c1ccc(F)cc1F)n1cnn(S(=O)(=O)C2CC2)c1=O [Compound 11-144] | 80 | 80 | 80 | 60 | 100 | 100 | 100 | 100 | 90 | 100 | 80 | 100
7 | CC(C)N(C(=O)n1cnn(S(=O)(=O)C2CC2)c1=O)c1ccc(F)cc1Cl [Compound 11-205] | 70 | 100 | 100 | 70 | 80 | 100 | 100 | 100 | 100 | 100 | 90 | 100
8 | CC(C)N(C(=O)n1cnn(S(=O)(=O)C2CC2)c1=O)c1ccc(Cl)cc1F [Compound 11-206] | 60 | 90 | 90 | 60 | 90 | 100 | 90 | 90 | 100 | 100 | 100 | 100
9 | CC(C)N(C(=O)n1cnn(S(=O)(=O)C2CC2)c1=O)c1ccc(Br)cc1Cl [Compound 11-209] | 30 | 90 | 90 | 60 | 80 | 100 | 90 | 100 | 100 | 100 | 90 | 100
10 | Cc1cc(Cl)ccc1N(C(=O)n1cnn(S(=O)(=O)C2CC2)c1=O)C(C)C [Compound 11-213] | 90 | 80 | 90 | 80 | 80 | 90 | 80 | 90 | 90 | 100 | 60 | 90
11 | CC(C)N(C(=O)n1cnn(S(=O)(=O)C2CC2)c1=O)c1ccc(C(F)(F)F)cc1F [Compound 11-217] | 60 | 100 | 100 | 70 | 80 | 100 | 90 | 80 | 100 | 100 | 100 | 80
